Measured values from PMC7556317 (Chembiochem : a European journal of chemical biology, 2009).

Legend:
[1] = tested on: Her-2 in SkBr3 cells; assay: Her-2 depletion in SkBr3 cells as pharmacodynamic marker of cellular efficacy; type: cell-based; conditions: read-out: PD (Her-2 depletion in SkBr3 cells, EC50); SkBr3 cells treated with the inhibitor overnight
[2] = tested on: BT474 breast tumor cells; conditions: xenografts bearing BT474 breast tumor cells; cited from earlier work

CC1=CC(=NOCC(=O)N2CCCCC2)Cc2cc(O)cc(O)c2C(=O)OCCC=CCC1 [Compound A1B3C4D1]
EC50 [1]: ≤ 500 nM

CC1C=CCCOC(=O)c2c(O)cc(O)cc2CC(=NOCC(=O)N2CCCCC2)C=CC1 (stereo not drawn) [Compound A1B4C4D1]
EC50 [1]: ≤ 500 nM

O=C1OCC/C=C/CC/C=C/C(=N/OCC(=O)N2CCCCC2)Cc2c(Cl)c(O)cc(O)c21 [Pochoxime A]
Effect on tumor in xenografts [2]: tumor regression
